# Experimental data taken from the kinase profiling compilation of Christmann-Franck et al. (2016).
# Experiments:
# Experiment in all cases: KINOMEscan competition binding
# Settings in all cases: compound 10.0 µM
# RPS6KA6 KD1 (human) = RPS6KA6 KD1 (human) (UniProt Q9UK32)
# PAK3 (human) = PAK3 (human) (UniProt O75914)
# [1] = tested on: ABL1 (human), P00519 [F317I]
# PRKCD (human) = PRKCD (human) (UniProt Q05655)
# FES (human) = FES (human) (UniProt P07332)
# MAP4K1 (human) = MAP4K1 (human) (UniProt Q92918)
# EPHA4 (human) = EPHA4 (human) (UniProt P54764)
# CDKL2 (human) = CDKL2 (human) (UniProt Q92772)
# PRKCE (human) = PRKCE (human) (UniProt Q02156)
# RPS6KA3 KD1 (human) = RPS6KA3 KD1 (human) (UniProt P51812)
# CAMK1G (human) = CAMK1G (human) (UniProt Q96NX5)
# ULK1 (human) = ULK1 (human) (UniProt O75385)
# [2] = biological target: JAK1 JH1 catalytic (human) (UniProt P23458)
# CAMK2A (human) = CAMK2A (human) (UniProt Q9UQM7)
# WEE1 (human) = WEE1 (human) (UniProt P30291)
# Chain of WEE1 (human) (P30291 whole entry, looked up): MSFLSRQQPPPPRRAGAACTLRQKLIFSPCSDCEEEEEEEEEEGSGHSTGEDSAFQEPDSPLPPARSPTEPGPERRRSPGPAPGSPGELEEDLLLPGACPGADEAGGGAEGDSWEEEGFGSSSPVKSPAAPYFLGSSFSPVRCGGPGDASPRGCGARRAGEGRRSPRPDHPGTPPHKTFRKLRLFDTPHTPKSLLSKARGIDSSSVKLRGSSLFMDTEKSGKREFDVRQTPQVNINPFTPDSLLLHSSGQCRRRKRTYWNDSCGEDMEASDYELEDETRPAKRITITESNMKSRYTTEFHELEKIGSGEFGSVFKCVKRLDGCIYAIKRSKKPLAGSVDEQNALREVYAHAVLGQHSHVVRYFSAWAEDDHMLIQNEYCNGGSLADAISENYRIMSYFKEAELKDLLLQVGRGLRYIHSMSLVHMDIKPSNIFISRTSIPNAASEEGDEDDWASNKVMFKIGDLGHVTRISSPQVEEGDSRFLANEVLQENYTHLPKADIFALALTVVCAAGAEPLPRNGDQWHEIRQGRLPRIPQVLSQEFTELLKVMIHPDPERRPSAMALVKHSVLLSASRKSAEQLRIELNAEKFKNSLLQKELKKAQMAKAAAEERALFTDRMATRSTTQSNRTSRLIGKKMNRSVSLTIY
# PRKG1 (human) = PRKG1 (human) (UniProt Q13976)
# [3] = tested on: EGFR (human), P00533 [L858R]
# CDC42BPB (human) = CDC42BPB (human) (UniProt Q9Y5S2)
# CAMK4 (human) = CAMK4 (human) (UniProt Q16566)
# CSK (human) = CSK (human) (UniProt P41240)
# PTK2B (human) = PTK2B (human) (UniProt Q14289)
# EPHB1 (human) = EPHB1 (human) (UniProt P54762)
# Chain of EPHB1 (human) (P54762 whole entry, looked up): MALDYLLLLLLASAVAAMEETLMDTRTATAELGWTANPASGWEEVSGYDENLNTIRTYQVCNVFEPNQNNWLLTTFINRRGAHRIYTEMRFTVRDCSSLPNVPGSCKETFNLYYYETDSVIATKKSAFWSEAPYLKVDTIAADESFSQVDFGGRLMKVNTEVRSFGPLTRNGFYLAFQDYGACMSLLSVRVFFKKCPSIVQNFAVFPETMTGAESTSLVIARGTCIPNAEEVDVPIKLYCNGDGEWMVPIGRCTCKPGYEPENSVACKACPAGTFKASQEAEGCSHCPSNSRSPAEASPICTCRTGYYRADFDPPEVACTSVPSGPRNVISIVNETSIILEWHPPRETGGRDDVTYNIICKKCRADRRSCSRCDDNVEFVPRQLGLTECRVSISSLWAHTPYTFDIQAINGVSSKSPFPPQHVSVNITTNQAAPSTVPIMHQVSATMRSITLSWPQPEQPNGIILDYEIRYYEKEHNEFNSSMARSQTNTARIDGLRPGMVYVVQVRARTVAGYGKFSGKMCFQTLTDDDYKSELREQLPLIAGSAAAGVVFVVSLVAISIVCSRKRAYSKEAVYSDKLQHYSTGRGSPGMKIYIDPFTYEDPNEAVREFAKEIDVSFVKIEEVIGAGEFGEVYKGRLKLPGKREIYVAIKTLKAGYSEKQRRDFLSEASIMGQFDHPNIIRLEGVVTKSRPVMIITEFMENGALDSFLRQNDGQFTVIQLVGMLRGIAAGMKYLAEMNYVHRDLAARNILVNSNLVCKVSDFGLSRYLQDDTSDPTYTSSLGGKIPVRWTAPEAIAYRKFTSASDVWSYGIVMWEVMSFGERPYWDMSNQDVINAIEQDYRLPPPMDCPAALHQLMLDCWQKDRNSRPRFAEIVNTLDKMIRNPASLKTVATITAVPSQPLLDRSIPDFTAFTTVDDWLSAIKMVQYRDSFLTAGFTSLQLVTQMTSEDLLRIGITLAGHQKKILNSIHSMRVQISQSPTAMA
# DDR1 (human) = DDR1 (human) (UniProt Q08345)
# ABL2 (human) = ABL2 (human) (UniProt P42684)
# ABL1 (human) = ABL1 (human) (UniProt P00519)
# MAPK13 (human) = MAPK13 (human) (UniProt O15264)
# Chain of MAPK13 (human) (O15264 whole entry, looked up): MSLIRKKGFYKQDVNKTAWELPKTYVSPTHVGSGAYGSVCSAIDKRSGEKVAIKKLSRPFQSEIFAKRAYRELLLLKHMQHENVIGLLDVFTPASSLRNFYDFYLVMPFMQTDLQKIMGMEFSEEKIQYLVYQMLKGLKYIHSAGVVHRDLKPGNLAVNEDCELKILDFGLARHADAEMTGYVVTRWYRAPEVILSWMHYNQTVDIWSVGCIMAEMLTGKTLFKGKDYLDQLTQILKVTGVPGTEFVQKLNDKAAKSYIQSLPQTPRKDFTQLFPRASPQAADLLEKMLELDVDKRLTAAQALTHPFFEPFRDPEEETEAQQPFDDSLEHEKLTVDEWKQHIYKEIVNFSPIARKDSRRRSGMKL
# SRPK1 (human) = SRPK1 (human) (UniProt Q96SB4)
# Chain of SRPK1 (human) (Q96SB4 whole entry, looked up): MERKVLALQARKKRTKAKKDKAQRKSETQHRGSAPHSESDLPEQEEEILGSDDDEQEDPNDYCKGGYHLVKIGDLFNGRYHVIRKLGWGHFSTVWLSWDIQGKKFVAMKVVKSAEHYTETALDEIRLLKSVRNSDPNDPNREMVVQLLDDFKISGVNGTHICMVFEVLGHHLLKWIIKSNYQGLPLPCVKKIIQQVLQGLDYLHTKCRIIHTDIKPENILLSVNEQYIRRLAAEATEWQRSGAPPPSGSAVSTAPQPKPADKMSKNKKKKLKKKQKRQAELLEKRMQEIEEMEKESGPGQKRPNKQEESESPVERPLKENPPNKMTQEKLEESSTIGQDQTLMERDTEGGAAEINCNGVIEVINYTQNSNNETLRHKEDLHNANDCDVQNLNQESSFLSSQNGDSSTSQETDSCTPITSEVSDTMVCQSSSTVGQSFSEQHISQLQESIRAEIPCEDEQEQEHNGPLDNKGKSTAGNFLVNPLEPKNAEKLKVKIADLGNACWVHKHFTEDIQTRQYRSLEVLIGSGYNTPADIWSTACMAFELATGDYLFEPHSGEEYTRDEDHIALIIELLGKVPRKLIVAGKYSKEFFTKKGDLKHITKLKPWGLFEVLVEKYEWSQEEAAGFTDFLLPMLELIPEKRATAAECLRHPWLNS
# AKT3 (human) = AKT3 (human) (UniProt Q9Y243)
# NTRK1 (human) = NTRK1 (human) (UniProt P04629)
# IKBKB (human) = IKBKB (human) (UniProt O14920)
# MAPK9 (human) = MAPK9 (human) (UniProt P45984)
# NUAK2 (human) = NUAK2 (human) (UniProt Q9H093)
# MAP4K5 (human) = MAP4K5 (human) (UniProt Q9Y4K4)
# LTK (human) = LTK (human) (UniProt P29376)
# Chain of LTK (human) (P29376 whole entry, looked up): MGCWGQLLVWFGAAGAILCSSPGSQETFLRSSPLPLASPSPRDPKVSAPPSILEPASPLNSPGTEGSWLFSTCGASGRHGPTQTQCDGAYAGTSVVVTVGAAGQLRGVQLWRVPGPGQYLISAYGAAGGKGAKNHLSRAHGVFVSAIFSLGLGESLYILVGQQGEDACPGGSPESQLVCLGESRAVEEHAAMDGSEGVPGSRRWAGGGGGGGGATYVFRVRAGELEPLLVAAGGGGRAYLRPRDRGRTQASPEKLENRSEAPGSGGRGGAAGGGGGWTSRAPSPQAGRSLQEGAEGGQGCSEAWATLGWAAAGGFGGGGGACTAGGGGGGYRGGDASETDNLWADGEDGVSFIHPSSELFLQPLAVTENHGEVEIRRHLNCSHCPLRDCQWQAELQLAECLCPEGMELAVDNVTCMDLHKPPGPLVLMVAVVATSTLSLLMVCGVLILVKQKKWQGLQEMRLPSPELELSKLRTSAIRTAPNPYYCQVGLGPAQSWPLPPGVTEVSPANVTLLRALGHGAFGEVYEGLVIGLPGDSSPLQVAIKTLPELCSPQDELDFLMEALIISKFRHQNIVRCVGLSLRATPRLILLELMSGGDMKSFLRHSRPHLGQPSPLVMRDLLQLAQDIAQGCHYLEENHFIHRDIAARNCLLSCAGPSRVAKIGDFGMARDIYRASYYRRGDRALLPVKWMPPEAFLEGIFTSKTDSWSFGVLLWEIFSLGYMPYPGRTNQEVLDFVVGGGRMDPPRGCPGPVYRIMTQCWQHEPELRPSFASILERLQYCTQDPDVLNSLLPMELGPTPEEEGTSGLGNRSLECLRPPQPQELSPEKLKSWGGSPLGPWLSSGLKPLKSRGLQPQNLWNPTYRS
# MUSK (human) = MUSK (human) (UniProt O15146)
# ADCK3 (human) = ADCK3 (human) (UniProt Q8NI60)
# SLK (human) = SLK (human) (UniProt Q9H2G2)
# BMX (human) = BMX (human) (UniProt P51813)
# PAK7 (human) = PAK7 (human) (UniProt Q9P286)
# Chain of PAK7 (human) (Q9P286 whole entry, looked up): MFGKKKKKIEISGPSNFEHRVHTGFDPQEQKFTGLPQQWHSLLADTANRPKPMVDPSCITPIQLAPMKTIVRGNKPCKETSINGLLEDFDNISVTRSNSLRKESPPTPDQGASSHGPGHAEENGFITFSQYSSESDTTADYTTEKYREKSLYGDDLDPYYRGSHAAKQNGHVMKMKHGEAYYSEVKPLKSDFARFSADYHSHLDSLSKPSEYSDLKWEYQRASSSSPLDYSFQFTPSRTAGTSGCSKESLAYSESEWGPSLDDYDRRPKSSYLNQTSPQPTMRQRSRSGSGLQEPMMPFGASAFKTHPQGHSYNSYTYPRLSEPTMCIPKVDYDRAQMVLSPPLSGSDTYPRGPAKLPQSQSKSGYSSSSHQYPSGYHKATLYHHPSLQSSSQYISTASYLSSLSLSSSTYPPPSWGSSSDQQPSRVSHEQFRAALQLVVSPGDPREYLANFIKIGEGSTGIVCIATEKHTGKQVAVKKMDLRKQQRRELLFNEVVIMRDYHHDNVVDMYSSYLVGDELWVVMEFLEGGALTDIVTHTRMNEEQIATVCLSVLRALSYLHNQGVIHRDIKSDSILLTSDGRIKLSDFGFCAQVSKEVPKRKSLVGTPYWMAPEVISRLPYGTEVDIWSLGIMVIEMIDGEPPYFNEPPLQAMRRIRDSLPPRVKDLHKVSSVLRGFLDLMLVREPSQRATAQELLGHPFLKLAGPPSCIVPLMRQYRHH
# PKN2 (human) = PKN2 (human) (UniProt Q16513)
# FGFR1 (human) = FGFR1 (human) (UniProt P11362)
# STK32B (human) = STK32B (human) (UniProt Q9NY57)
# Chain of RPS6KA6 KD1 (human) (Q9UK32 whole entry, looked up): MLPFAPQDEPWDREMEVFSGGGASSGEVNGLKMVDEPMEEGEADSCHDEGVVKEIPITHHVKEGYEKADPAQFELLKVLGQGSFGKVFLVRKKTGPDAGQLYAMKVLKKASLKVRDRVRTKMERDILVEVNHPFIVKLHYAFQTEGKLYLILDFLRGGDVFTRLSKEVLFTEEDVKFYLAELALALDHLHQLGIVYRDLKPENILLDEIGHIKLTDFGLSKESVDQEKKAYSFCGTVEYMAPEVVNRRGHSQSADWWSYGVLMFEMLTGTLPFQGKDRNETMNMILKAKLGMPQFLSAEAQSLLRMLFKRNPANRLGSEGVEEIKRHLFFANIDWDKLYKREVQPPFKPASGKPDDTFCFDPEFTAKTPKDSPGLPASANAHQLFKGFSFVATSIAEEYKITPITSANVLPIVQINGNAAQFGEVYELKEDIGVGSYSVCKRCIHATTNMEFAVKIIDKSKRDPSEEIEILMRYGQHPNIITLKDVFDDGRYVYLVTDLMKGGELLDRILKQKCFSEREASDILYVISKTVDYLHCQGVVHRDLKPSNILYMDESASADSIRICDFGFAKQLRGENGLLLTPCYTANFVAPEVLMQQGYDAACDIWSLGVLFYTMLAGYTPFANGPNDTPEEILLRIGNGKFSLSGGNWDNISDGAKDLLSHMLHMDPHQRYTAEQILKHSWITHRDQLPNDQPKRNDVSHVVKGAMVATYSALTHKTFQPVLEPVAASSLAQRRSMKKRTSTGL
smiles,measurement,setting,value
COc1cc(N2CCN(C)CC2)ccc1Nc1ncc2c(n1)N(C)c1sccc1C(=O)N2C,"kinase still bound, per cent of control",RPS6KA6 KD1 (human),96%
same,"kinase still bound, per cent of control",PAK3 (human),100%
same,"kinase still bound, per cent of control",[1],6.6%
same,"kinase still bound, per cent of control",PRKCD (human),100%
same,"kinase still bound, per cent of control",FES (human),100%
same,"kinase still bound, per cent of control",MAP4K1 (human),82%
same,"kinase still bound, per cent of control",EPHA4 (human),100%
same,"kinase still bound, per cent of control",CDKL2 (human),100%
same,"kinase still bound, per cent of control",PRKCE (human),97%
same,"kinase still bound, per cent of control",RPS6KA3 KD1 (human),99%
same,"kinase still bound, per cent of control",CAMK1G (human),68%
same,"kinase still bound, per cent of control",ULK1 (human),6.5%
same,"kinase still bound, per cent of control",[2],100%
same,"kinase still bound, per cent of control",CAMK2A (human),44%
same,"kinase still bound, per cent of control",WEE1 (human),100%
same,"kinase still bound, per cent of control",PRKG1 (human),100%
same,"kinase still bound, per cent of control",[3],63%
same,"kinase still bound, per cent of control",CDC42BPB (human),99%
same,"kinase still bound, per cent of control",CAMK4 (human),80%
same,"kinase still bound, per cent of control",CSK (human),88%
same,"kinase still bound, per cent of control",PTK2B (human),88%
same,"kinase still bound, per cent of control",EPHB1 (human),88%
same,"kinase still bound, per cent of control",DDR1 (human),100%
same,"kinase still bound, per cent of control",ABL2 (human),92%
same,"kinase still bound, per cent of control",ABL1 (human),79%
same,"kinase still bound, per cent of control",MAPK13 (human),71%
same,"kinase still bound, per cent of control",SRPK1 (human),100%
same,"kinase still bound, per cent of control",AKT3 (human),100%
same,"kinase still bound, per cent of control",NTRK1 (human),60%
same,"kinase still bound, per cent of control",IKBKB (human),65%
same,"kinase still bound, per cent of control",MAPK9 (human),82%
same,"kinase still bound, per cent of control",NUAK2 (human),8%
same,"kinase still bound, per cent of control",MAP4K5 (human),99%
same,"kinase still bound, per cent of control",LTK (human),83%
same,"kinase still bound, per cent of control",MUSK (human),100%
same,"kinase still bound, per cent of control",ADCK3 (human),100%
same,"kinase still bound, per cent of control",SLK (human),87%
same,"kinase still bound, per cent of control",BMX (human),100%
same,"kinase still bound, per cent of control",PAK7 (human),71%
same,"kinase still bound, per cent of control",PKN2 (human),90%
same,"kinase still bound, per cent of control",FGFR1 (human),100%
same,"kinase still bound, per cent of control",STK32B (human),100%
